According to patent US10047105B2, “Gyrase inhibitors” (Merck Sharp & Dohme Corp., priority 2009, dated 2018):
≈ marks a conversion by molar mass, not a printed value.

Assays:
[1] = system: S. pneumoniae ATCC 51916; assay: MIC, S. pneumoniae; type: cell-based
[2] = system: S. aureus ATCC 13709; assay: MIC, antibacterial potency, S. aureus; type: cell-based
[3] = S. pneumoniae (Spn52), in µg/mL

CCc1[nH]c2nc(Sc3cnc4c(C#N)cnn4c3)nc(N3CC[C@@H](N)C3)c2c1Cl [700,718]
MIC Spn52 ([1]; S. pneumoniae): 8 mg/L (≈ 18.2 µM) | MIC, SA ([2]; S. aureus): 4 mg/L (≈ 9.09 µM)

CCc1[nH]c2nc(Sc3ccc4ccc(C(=O)O)nc4c3)nc(N3CC[C@@H](N)C3)c2c1Cl [700,719]
MIC Spn52 ([1]; S. pneumoniae): > 64 mg/L | MIC, SA ([2]; S. aureus): 2 mg/L (≈ 4.26 µM)

CCc1[nH]c2nc(Sc3cnc4nccnc4c3)nc(N3CCC(CN)C3)c2c1Cl.O=C(O)C(F)(F)F (stereo not drawn) [700,720]
MIC Spn52 ([1]; S. pneumoniae): 16 mg/L | MIC, SA ([2]; S. aureus): 8 mg/L

CCc1[nH]c2nc(Sc3cnc4nccnc4c3)nc(N3CC4CCCNC4C3)c2c1Cl.O=C(O)C(F)(F)F (stereo not drawn) [700,721]
MIC Spn52 ([1]; S. pneumoniae): 32 mg/L | MIC, SA ([2]; S. aureus): 32 mg/L

CCc1[nH]c2nc(Oc3cncnc3)nc(Oc3cncc(C#N)c3)c2c1Cl.O=C(O)C(F)(F)F [700,722]
MIC Spn52 ([1]; S. pneumoniae): 8 mg/L | MIC, SA ([2]; S. aureus): 4 mg/L

CCc1[nH]c2nc(Oc3cncc(C#N)c3)nc(Oc3cncc(C#N)c3)c2c1Cl.O=C(O)C(F)(F)F [700,723]
MIC Spn52 ([1]; S. pneumoniae): 2 mg/L | MIC, SA ([2]; S. aureus): ≤ 0.5 mg/L

CCc1[nH]c2nc(Oc3cncc(C#N)c3)nc(Oc3cncc(C#N)c3)c2c1Br.O=C(O)C(F)(F)F [700,724]
MIC Spn52 ([1]; S. pneumoniae): ≤ 0.5 mg/L | MIC, SA ([2]; S. aureus): ≤ 0.5 mg/L

CCc1[nH]c2nc(Sc3cnc4nccnc4c3)nc(N3CC4[C@H](C3)[C@@]4(N)C(N)=O)c2c1Cl.O=C(O)C(F)(F)F.O=C(O)C(F)(F)F (stereo partly drawn) [700,781]
MIC Spn52 ([1]; S. pneumoniae): 1 mg/L | MIC, SA ([2]; S. aureus): ≤ 0.5 mg/L

CCc1[nH]c2nc(Sc3cncnc3)nc(N3CC[C@@H](N)C3)c2c1Cl [700,783]
MIC Spn52 ([1]; S. pneumoniae): 16 mg/L (≈ 42.6 µM) | MIC, SA ([2]; S. aureus): 8 mg/L (≈ 21.3 µM)

CCc1[nH]c2nc(Sc3cncnc3)nc(N3CC4C(N)C4C3)c2c1Cl (stereo not drawn) [700,784]
MIC Spn52 ([1]; S. pneumoniae): 8 mg/L (≈ 20.6 µM) | MIC, SA ([2]; S. aureus): 2 mg/L (≈ 5.16 µM)

CCc1[nH]c2nc(Sc3cncnc3)nc(N3CC4CNC4C3)c2c1Cl (stereo not drawn) [700,785]
MIC Spn52 ([1]; S. pneumoniae): 64 mg/L (≈ 165 µM) | MIC, SA ([2]; S. aureus): 16 mg/L (≈ 41.2 µM)

CCc1[nH]c2nc(Sc3cncnc3)nc(N3CC(CN)C3)c2c1Cl [700,786]
MIC Spn52 [1, 3]: 32 | MIC, SA ([2]; S. aureus (SA), in µg/mL): 16

CCc1[nH]c2nc(Sc3cnc(N)nc3)nc(N3CC[C@@H](N)C3)c2c1Cl [700,788]
MIC Spn52 [1, 3]: 16 | MIC, SA ([2]; S. aureus (SA), in µg/mL): 8

CCc1[nH]c2nc(Sc3cnc(N)nc3)nc(N3CC4C(N)C4C3)c2c1Cl (stereo not drawn) [700,789]
MIC Spn52 [1, 3]: 8 | MIC, SA ([2]; S. aureus (SA), in µg/mL): 2

CCc1[nH]c2nc(Sc3cnc(N)nc3)nc(N3CC4CNC4C3)c2c1Cl (stereo not drawn) [700,790]
MIC Spn52 [1, 3]: 64 | MIC, SA ([2]; S. aureus (SA), in µg/mL): 16

CCc1[nH]c2nc(Sc3cnc4nccnc4c3)nc(N3CCNCC3)c2c1Cl.O=C(O)C(F)(F)F [700,791]
MIC Spn52 [1, 3]: 16 | MIC, SA ([2]; S. aureus (SA), in µg/mL): 64

CCc1[nH]c2nc(Sc3cnc4nccnc4c3)nc(N3CCC(n4c(=O)[nH]c5cc(Cl)ccc54)CC3)c2c1Cl.O=C(O)C(F)(F)F [700,792]
MIC Spn52 [1, 3]: >64 | MIC, SA ([2]; S. aureus (SA), in µg/mL): >64

CCc1[nH]c2nc(Oc3cncc(C#N)c3)nc(Oc3cccc(C#N)c3)c2c1Br.O=C(O)C(F)(F)F [700,793]
MIC Spn52 [1, 3]: <=0.5 | MIC, SA ([2]; S. aureus (SA), in µg/mL): <=0.5

CCc1[nH]c2nc(Sc3cnc4c(c3)OCCN4C)nc(N3CC(N)C3)c2c1Cl.O=C(O)C(F)(F)F [700,794]
MIC Spn52 [1, 3]: 32 | MIC, SA ([2]; S. aureus (SA), in µg/mL): 16

CCc1[nH]c2nc(Sc3cnc4cccnc4c3)nc(N3CC4CNC4C3)c2c1Cl.O=C(O)C(F)(F)F.O=C(O)C(F)(F)F (stereo not drawn) [700,796]
MIC Spn52 [1, 3]: 1 | MIC, SA ([2]; S. aureus (SA), in µg/mL): <=0.5

CCc1[nH]c2nc(Sc3cnc4c(c3)ncc(=O)n4CCCN3CCCC3=O)nc(N3CC[C@@H](N)C3)c2c1Cl [700,797]
MIC Spn52 [1, 3]: >32 | MIC, SA ([2]; S. aureus (SA), in µg/mL): >32

CCc1[nH]c2nc(Sc3cnc4c(c3)ncc(=O)n4CCO)nc(N3CC[C@@H](N)C3)c2c1Cl [700,798]
MIC Spn52 [1, 3]: 32 | MIC, SA ([2]; S. aureus (SA), in µg/mL): 16

CCc1[nH]c2nc(Sc3cnc4c(c3)ncc(=O)n4C3CCNCC3)nc(N3CC[C@@H](N)C3)c2c1Cl [700,799]
MIC Spn52 [1, 3]: >64 | MIC, SA ([2]; S. aureus (SA), in µg/mL): >64

CCc1[nH]c2nc(Sc3cnc4cccnc4c3)nc(N3CC4CCNC4C3)c2c1Cl (stereo not drawn) [700,801]
MIC Spn52 [1, 3]: <=0.5 | MIC, SA ([2]; S. aureus (SA), in µg/mL): <=0.5

CCc1[nH]c2nc(Sc3cncnc3)nc(N3CC4CCNC4C3)c2c1Cl (stereo not drawn) [700,802]
MIC Spn52 [1, 3]: 16 | MIC, SA ([2]; S. aureus (SA), in µg/mL): 4

CCc1[nH]c2nc(Sc3cnc(N)nc3)nc(N3CC4CCNC4C3)c2c1Cl (stereo not drawn) [700,803]
MIC Spn52 [1, 3]: 16 | MIC, SA ([2]; S. aureus (SA), in µg/mL): 8

CCc1[nH]c2nc(Sc3ccc4ccc(C(=O)O)nc4c3)nc(N3CC(CNC(=O)C4CC4)C3)c2c1Cl [700,804]
MIC Spn52 [1, 3]: 16 | MIC, SA ([2]; S. aureus (SA), in µg/mL): 4
